Marks after values point to notes of the source that are not given here.
Experiments:
NK-2 receptor = target: T1, NK-2 receptor (Homo sapiens, UniProt P21452); assay: NK-2 receptor inhibition; assay type: binding
T1 sequence (P21452 1-398): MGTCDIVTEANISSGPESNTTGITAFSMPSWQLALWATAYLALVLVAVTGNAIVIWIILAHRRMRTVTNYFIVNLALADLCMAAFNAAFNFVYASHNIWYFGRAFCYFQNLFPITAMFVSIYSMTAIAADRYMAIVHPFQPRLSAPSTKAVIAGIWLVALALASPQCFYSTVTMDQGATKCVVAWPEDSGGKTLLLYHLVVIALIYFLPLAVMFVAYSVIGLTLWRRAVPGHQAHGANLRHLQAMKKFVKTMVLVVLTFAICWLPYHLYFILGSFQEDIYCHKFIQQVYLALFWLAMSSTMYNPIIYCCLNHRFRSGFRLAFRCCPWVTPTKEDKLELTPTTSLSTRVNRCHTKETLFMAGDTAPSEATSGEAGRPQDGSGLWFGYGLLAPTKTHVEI

[1] = tested on: apomorphine-induced emesis; assay: Apomorphine emetic challenge in beagle dogs; assay type: in vivo, beagle dog; details: for Total No. Emetic Episodes: apomorphine 0.1 mg/kg iv 2 hours later, 5 dogs
Description: Over the five (5) weeks of the study, each animal receives each of the treatments, but only one per week. The purpose of this study is to determine if tradipitant suppresses apomorphine-induced emesis.
All animals are dosed over a period of five (5) weeks, with each dog receiving one of five different treatments on each day of dosing.
All dogs are fasted overnight prior to each treatment day and then fed approximately one (1) hour after oral dosing (approximately one (1) hour prior to administration of apomorphine). Individual doses are adjusted weekly for changes in body weight.
The dose regimen consists of a 5×5 Latin square design, in which each subject receives 1 dose or dose combination per week (6 day washout) as shown in Table 3 below.

[2] = tested on: panel of 74 other receptors, enzymes, and ion channels; assay: Binding panel of 74 other receptors, enzymes and ion channels; details: test concentration of 1 μM; any of 74 targets
NK-1 receptor = NK-1 receptor (Meriones unguiculatus, UniProt Q5DUB1); assay: NK-1 agonist (GR73632)-induced foot-tapping behavior in gerbils; assay type: in vivo; design: from tissue; host or cells: living gerbils (central NK-1 receptors); details: gerbil
Chain of NK-1 receptor (Q5DUB1 whole entry): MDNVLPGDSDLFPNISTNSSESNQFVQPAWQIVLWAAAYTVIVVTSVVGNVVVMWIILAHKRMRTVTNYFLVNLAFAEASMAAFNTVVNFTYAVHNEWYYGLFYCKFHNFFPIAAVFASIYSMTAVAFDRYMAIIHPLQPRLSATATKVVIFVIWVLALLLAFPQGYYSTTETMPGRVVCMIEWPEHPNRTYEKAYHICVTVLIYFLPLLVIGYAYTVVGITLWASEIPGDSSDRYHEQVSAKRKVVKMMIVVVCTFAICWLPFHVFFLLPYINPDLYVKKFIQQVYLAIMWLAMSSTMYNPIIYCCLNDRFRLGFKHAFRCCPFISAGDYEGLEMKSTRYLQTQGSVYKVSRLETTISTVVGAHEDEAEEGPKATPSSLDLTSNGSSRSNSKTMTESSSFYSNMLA
Description: Male Mongolian gerbils (Harlan Sprague Dawley, Indianapolis, Ind.) weighing 26 to 40 grams are administered the selective neurokinin-1 receptor agonist GR73632 ([…]) via direct, vertical, free-hand intracerebroventricular (icv) injection to a depth of 4.5 mm below bregma with a cuffed 27-gauge needle attached to a 50 μl Hamilton syringe Immediately after injection, animals are placed individually into isolated chambers with pressure-sensitive velocimeter platform floors (San Diego Instruments acoustic startle apparatus) that detect and quantify vibration. The San Diego Instruments “SR” DOS-based computer program is used on a PC to record the number of foot-taps over the following 6 to 10 minutes, beginning 30 seconds after the floor is lightly tapped. Raw data are converted with a Microsoft® Excel® (Microsoft® and Excel® are registered trademarks of Microsoft Corp., Redmond, Wash.) macro that determines the number of events over threshold (125) in each 250-millisecond time bin over the 5.5 minutes following onset of observation. The total number and average intensity of events over the duration is determined. Total number of taps is analyzed with one-way ANOVA and post-hoc Dunnett's test using JMP statistical software.
A dose-response curve (with doses of 0.3, 1, 3 and 10 pmols, icv) is initially generated with the NK-1 agonist GR73632.
NK-1 antagonists are tested for their ability to attenuate GR73632-induced foot tapping. NK-1 antagonists are administered (po) via oral feeding tube at doses and time points specified in each experiment. All animals receive only one dose of NK-1 antagonists in all tests.
NK-1 antagonists are administered at multiple doses (at least 3; one dose per animal) and response to GR73632 is measured.
NK-1 receptor antagonists are administered at multiple pre-treatment times (one administration per animal) including at 0.5, 1, 2, 4, 7, 16, and 24 hours prior to GR73632 injection. GR73632 (Peninsula Labs, CA) is dissolved in saline. Tradipitant is dissolved in 1% CMC/0.5% SLS/0.085% PVP vehicle.

brain NK-1 receptors = assay: Brain NK-1 receptor occupancy with tracer GR205171; assay type: in vivo; details: p.o., tracer GR205171 iv
Description: A tracer NK-1 antagonist compound (GR205171) is used to evaluate the ability of other NK-1 antagonists to occupy the brain NK-1 receptors. In these studies, the test compounds are administered orally and the tracer compound is administered intravenously afterward. The occupancy of the NK-1 receptors is evaluated by quantitating the amount of the tracer compound bound to the brain NK-1 receptors after increasing doses of the test compounds.

NK-3 receptor = target: T2, NK-3 receptor (Homo sapiens, UniProt P29371); assay: NK-3 receptor inhibition; assay type: binding
T2 sequence (P29371 1-465): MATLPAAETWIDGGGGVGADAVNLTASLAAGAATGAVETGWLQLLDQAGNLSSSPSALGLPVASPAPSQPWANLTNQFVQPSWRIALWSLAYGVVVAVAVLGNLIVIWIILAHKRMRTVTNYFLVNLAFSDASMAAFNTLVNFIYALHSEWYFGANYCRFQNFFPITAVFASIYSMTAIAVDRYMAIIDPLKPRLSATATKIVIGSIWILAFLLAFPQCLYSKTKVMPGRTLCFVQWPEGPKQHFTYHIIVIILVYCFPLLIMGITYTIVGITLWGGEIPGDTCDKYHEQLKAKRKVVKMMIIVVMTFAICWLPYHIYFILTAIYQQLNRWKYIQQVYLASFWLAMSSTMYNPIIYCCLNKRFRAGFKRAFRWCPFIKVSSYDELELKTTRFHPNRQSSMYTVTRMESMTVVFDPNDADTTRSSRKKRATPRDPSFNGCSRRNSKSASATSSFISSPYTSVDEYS

## O=C(c1ccccc1Cl)c1cccnc1-c1nnn(Cc2cc(C(F)(F)F)cc(C(F)(F)F)c2)c1-c1ccncc1 [Tradipitant, {2-[1-(3,5-bistrifluoromethylbenzyl)-5-pyridin-4-yl-1H-[1,2,3]triazol-4-yl]-pyridin-3-yl}-(2-chlorophenyl)-methanone]
NK-2 receptor
  inhibition at NK-2 receptor: no significant inhibition
[1]; 0.3 mg/kg oral
  Total No. Emetic Episodes: 1**
[1]; 1.0 mg/kg oral
  Total No. Emetic Episodes: 1**
[1]; 3.0 mg/kg oral
  Total No. Emetic Episodes: 1**
[1]; each dose tested (0.3, 1.0, and 3.0 mg/kg)
  effect against apomorphine-induced emesis: effective
[2]
  inhibition of binding: ≤ 50%
NK-1 receptor; 0.1 mg/kg po
  time after administration with significant inhibition of foot-tapping: up to 7 hours
NK-1 receptor; 0.1 mg/kg po, 16 hours
  effect on foot-tapping by 16 hours after administration: significantly diminished
NK-1 receptor; 1 mg/kg, 16 hours after administration
  inhibition at 1 mg/kg: > 50%
NK-1 receptor; oral, 2 hours after administration, GR73632 3 pmol icv, read-out: ED50, inhibition of foot-tapping behavior
  ED50: 0.03 ± 0.004 mg/kg
Brain NK-1 receptors
  ED50, occupancy of brain NK-1 receptors: 0.04 mg/kg
NK-3 receptor
  inhibition at NK-3 receptor: no significant inhibition

From US20220096449A1, “METHOD OF TREATMENT WITH TRADIPITANT” (Vanda Pharmaceuticals Inc., priority 2018, published 2022)
